Among the data in BindingDB's records for patent US12509454 (Ideaya Biosciences, 2025) are IC50 values, retold here.

For the assay, the target named is T1, DNA polymerase theta [1-899] (UniProt O75417).
T1 construct: 1-899
As to the kind of experiment: ATPase activity of Pol theta (1-899) was determined using the assay. As for the experimental part:
Pol Theta ATPase activity was determined by measuring the rate of ATP turn over in a NADH oxidation-coupled enzymatic assay. 10-point dilution series of compounds were used in a 384 well format for the inhibition assays. Pol theta (1-899) (10 nM) in assay buffer (20 mM Tris HCl (pH 7.80), 80 mM KCl, 10 mM MgCl2, 1 mM DTT, 0.01% BSA, 0.01% Tween, 5% glycerol) was transferred to the test wells (20 μL), except the low control wells (20 μL of assay buffer was added to the low control wells). The plate was then incubated at room temperature for 15 min. An equal volume (20 μL) of 100 μM ATP, 300 nM dT50 (single-stranded DNA (ssDNA) containing 50 thymine bases), 300 μM NADH, 6 mM PEP, 10 U/mL lactate dehydrogenase and 20 U/mL pyruvate kinase in assay buffer was added to all the test wells. The plate was then centrifuged at 1000 rpm for 1 min. The reaction was monitored for 30 min by measuring absorbance (λ=340 nm) in a Tecan Spark multimode plate reader every minute. The high control (DMSO with enzyme) with low absorbance intensity represents no inhibition of ATPase reaction while the low control (DMSO with buffer) with high absorbance intensity represents full inhibition of ATPase activity. Slope of the reaction progress curves were used to calculate the rate of ATP hydrolysis.

T1 sequence (O75417 1-899): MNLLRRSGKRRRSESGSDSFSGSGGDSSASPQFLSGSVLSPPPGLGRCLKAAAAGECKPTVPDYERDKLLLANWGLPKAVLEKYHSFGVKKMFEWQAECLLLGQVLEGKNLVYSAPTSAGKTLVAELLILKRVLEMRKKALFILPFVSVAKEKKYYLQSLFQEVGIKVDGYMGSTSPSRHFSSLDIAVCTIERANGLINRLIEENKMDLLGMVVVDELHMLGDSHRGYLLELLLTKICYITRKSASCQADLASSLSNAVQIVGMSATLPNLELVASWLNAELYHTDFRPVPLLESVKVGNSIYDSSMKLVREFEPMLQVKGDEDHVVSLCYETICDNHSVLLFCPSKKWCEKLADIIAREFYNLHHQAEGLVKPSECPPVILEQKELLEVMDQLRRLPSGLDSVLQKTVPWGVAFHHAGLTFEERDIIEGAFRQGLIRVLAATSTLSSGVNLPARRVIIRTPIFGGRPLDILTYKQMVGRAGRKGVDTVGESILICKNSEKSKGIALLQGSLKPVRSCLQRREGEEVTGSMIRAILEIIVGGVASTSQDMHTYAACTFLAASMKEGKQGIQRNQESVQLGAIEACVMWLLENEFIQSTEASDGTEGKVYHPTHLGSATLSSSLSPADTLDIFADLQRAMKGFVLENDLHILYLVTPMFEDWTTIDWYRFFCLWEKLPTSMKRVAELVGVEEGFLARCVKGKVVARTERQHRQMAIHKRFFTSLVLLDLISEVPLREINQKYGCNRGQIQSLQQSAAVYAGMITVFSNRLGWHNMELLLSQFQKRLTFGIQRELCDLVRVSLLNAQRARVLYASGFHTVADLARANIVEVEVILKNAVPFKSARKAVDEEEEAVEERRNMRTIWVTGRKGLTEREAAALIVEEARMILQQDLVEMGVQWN

As usually defined, the IC50 is the point on the concentration scale where inhibition reaches its midpoint. A low value points to greater potency in that assay. As for `O=C(Nc1nnc(OCc2ccc(Cl)cc2)s1)c1ccncc1N1CCO[C@@H]2C[C@@H]21` (mixture of isomers) [US12509454, Compound 178], the half-inhibitory concentration (IC50) was < 0.2 µM.
With `O=C(Nc1nnc(OCc2ccc(Cl)cc2)s1)c1cccnc1N1CCC(O)CC1` [US12509454, Compound 20] the figure was > 1 µM; with `CC(C)(O)C#Cc1ccc(C(=O)Nc2nnc(OCc3ccc(Cl)cc3)s2)c(N2CCOCC2)n1` [US12509454, Compound 29], > 1 µM.
With `N#Cc1cc(-c2c(F)cccc2OC(F)F)c(C(=O)Nc2nnc(OCc3ccc(Cl)cn3)s2)cn1` [US12509454, Compound 193] the figure was < 0.2 µM.
